pKi: −log10 of the molar value.
Columns and labels:
[1] = target: Serotonin 1 (5-HT1) receptor (Rattus norvegicus) (UniProt P28564+P30940+P19327+P28565); assay: 5HT1/R Eurofins-Panlabs selectivity data (BI); assay type: protein assay; conditions: Compound concentration 10.0 uM
[2] = target: T1, 5-hydroxytryptamine receptor 3A (Homo sapiens) (UniProt P46098); assay: 5HT3/HU Eurofins-Panlabs selectivity data (BI); conditions: Compound concentration 10.0 uM
T1 sequence (whole entry): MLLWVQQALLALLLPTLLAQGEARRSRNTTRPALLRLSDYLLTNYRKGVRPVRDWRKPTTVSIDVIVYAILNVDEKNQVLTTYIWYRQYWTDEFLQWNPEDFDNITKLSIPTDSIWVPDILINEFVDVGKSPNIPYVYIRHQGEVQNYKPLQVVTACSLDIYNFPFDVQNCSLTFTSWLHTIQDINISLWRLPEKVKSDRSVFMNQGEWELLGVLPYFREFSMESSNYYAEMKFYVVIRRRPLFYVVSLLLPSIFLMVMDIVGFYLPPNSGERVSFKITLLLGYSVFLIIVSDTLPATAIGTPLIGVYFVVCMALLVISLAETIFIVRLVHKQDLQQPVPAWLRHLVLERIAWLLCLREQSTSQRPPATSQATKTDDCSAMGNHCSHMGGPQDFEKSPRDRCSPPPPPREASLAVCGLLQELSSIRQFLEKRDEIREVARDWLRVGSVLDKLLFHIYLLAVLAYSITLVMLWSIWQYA

[3] = target: Adrenergic receptor alpha-1 (Rattus norvegicus) (UniProt P15823+P23944+P43140); assay: ALPHA1/R Eurofins-Panlabs selectivity data (BI); assay type: protein assay; conditions: Compound concentration 10.0 uM
[4] = target: Adrenergic receptor alpha-2 (Rattus norvegicus) (UniProt P22086+P19328+P22909); assay: ALPHA2/R Eurofins-Panlabs selectivity data (BI); assay type: protein assay; conditions: Compound concentration 10.0 uM
[5] = target: Sodium/potassium-transporting ATPase subunit alpha-1 (Sus scrofa) (UniProt P05024); assay: ATP NA+/K+PI Eurofins-Panlabs selectivity data (BI); conditions: Compound concentration 10.0 uM
Cavia porcellus = species on record: Cavia porcellus; assay: ATRANS Eurofins-Panlabs selectivity data (BI); conditions: Compound concentration 10.0 uM
[6] = target: Voltage-dependent L-type calcium channel subunit alpha-1C (DHP site) (Rattus norvegicus, UniProt P22002); assay: CA+/DHPSI/RA Eurofins-Panlabs selectivity data (BI); conditions: read-out: % Ctrl
[7] = target: Voltage-dependent L-type calcium channel subunit alpha-1C (diltiazem site) (Rattus norvegicus, UniProt P22002); assay: CA+/DILSI/RA Eurofins-Panlabs selectivity data (BI); conditions: compound concentration 10 uM, read-out: % Ctrl
[8] = target: Carbonic anhydrase 6 (Homo sapiens) (UniProt P23280); assay: CANHYDRASE Eurofins-Panlabs selectivity data (BI); conditions: Compound concentration 10.0 uM
[9] = target: Calcitonin-gene-related peptide receptor, CALCRL/RAMP1 (Homo sapiens) (UniProt O60894+Q16602); assay: CGRP/HU Eurofins-Panlabs selectivity data (BI); assay type: protein-complex assay; conditions: Compound concentration 10.0 uM
[10] = target: D(1A) dopamine receptor (Homo sapiens) (UniProt P21728); assay: D1/HU Eurofins-Panlabs selectivity data (BI); conditions: Compound concentration 10.0 uM
[11] = target: D(1B) dopamine receptor (Homo sapiens) (UniProt P21918); assay: D5/HU Eurofins-Panlabs selectivity data (BI); conditions: Compound concentration 10.0 uM
[12] = target: Gamma-aminobutyric acid receptor subunit alpha-1 (Rattus norvegicus) (UniProt P62813); assay: GABAACENTR Eurofins-Panlabs selectivity data (BI); conditions: Compound concentration 10.0 uM
[13] = target: Gamma-aminobutyric acid receptor subunit alpha-1 (Rattus norvegicus) (UniProt P62813); assay: GABAACL+ Eurofins-Panlabs selectivity data (BI); conditions: Compound concentration 10.0 uM
[14] = target: GABA B receptor (Rattus norvegicus) (UniProt Q9Z0U4+O88871); assay: GABAB/RA Eurofins-Panlabs selectivity data (BI); assay type: protein-complex assay; conditions: Compound concentration 10.0 uM
[15] = target: Glutamate receptor ionotropic, NMDA 1 (Rattus norvegicus) (UniProt P35439); assay: GLUTAMAT/R Eurofins-Panlabs selectivity data (BI); conditions: Compound concentration 10.0 uM
[16] = target: Histamine H2 receptor (Homo sapiens) (UniProt P25021); assay: H2/H Eurofins-Panlabs selectivity data (BI); conditions: Compound concentration 10.0 uM
[17] = target: Potassium voltage-gated channel subfamily A member 1 (Rattus norvegicus) (UniProt P10499); assay: K+/KA/R Eurofins-Panlabs selectivity data (BI); conditions: Compound concentration 10.0 uM
[18] = target: ATP-sensitive inward rectifier potassium channel 1 isoform X1 (Mesocricetus auratus) (UniProt A0A1U8CU73); assay: K+/KATP/HA Eurofins-Panlabs selectivity data (BI); conditions: Compound concentration 10.0 uM
[19] = target: Amine oxidase [flavin-containing] B (MAO-B) (Homo sapiens, UniProt P27338); assay: MAOB Eurofins-Panlabs selectivity data (BI); design: mode of action inhibitor; conditions: compound concentration 10 uM, read-out: % Ctrl
[20] = target: Muscarinic acetylcholine receptor (Rattus norvegicus) (UniProt P08482+P08483+P08485+P08911+P10980); assay: MUSCARIN/NS Eurofins-Panlabs selectivity data (BI); assay type: protein assay; conditions: Compound concentration 10.0 uM
[21] = target: Muscarinic acetylcholine receptor M1 (Rattus norvegicus) (UniProt P08482); assay: MUSCARIN/OTM Eurofins-Panlabs selectivity data (BI); conditions: Compound concentration 10.0 uM
[22] = target: T2, Thromboxane-A synthase (Homo sapiens) (UniProt P24557); assay: THRO SYN(HU) Eurofins-Panlabs selectivity data (BI)
T2 sequence (whole entry): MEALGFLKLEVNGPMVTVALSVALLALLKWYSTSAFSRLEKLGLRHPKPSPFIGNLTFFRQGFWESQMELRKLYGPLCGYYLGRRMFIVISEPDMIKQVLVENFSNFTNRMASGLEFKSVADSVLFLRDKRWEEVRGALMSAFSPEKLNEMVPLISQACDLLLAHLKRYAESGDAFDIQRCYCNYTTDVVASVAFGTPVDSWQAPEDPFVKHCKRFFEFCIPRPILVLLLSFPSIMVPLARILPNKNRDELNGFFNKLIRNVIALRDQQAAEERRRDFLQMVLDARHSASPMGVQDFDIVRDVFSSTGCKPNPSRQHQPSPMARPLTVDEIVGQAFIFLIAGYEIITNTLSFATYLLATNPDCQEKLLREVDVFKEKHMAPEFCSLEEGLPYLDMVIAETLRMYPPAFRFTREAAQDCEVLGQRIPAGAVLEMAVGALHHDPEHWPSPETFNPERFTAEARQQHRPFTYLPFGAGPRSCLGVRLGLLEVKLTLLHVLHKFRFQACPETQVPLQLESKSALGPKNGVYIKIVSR

[23] = target: Sodium-dependent noradrenaline transporter (Homo sapiens) (UniProt P23975); conditions: Compound concentration 10.0 uM
[24] = target: Sigma intracellular receptor 2 (Homo sapiens, UniProt Q5BJF2); assay: GPCRScan assay: inhibition of Sigma 2; design: radioligand conc. used [nm] 5.0, parental cells HEKT
[25] = target: Muscarinic acetylcholine receptor M5 (Homo sapiens) (UniProt P08912); conditions: Compound concentration 10.0 uM
[26] = target: Alpha-1D adrenergic receptor (Homo sapiens) (UniProt P25100); conditions: Compound concentration 10.0 uM

Sequence of Voltage-dependent L-type calcium channel subunit alpha-1C (DHP site) (P22002 whole entry): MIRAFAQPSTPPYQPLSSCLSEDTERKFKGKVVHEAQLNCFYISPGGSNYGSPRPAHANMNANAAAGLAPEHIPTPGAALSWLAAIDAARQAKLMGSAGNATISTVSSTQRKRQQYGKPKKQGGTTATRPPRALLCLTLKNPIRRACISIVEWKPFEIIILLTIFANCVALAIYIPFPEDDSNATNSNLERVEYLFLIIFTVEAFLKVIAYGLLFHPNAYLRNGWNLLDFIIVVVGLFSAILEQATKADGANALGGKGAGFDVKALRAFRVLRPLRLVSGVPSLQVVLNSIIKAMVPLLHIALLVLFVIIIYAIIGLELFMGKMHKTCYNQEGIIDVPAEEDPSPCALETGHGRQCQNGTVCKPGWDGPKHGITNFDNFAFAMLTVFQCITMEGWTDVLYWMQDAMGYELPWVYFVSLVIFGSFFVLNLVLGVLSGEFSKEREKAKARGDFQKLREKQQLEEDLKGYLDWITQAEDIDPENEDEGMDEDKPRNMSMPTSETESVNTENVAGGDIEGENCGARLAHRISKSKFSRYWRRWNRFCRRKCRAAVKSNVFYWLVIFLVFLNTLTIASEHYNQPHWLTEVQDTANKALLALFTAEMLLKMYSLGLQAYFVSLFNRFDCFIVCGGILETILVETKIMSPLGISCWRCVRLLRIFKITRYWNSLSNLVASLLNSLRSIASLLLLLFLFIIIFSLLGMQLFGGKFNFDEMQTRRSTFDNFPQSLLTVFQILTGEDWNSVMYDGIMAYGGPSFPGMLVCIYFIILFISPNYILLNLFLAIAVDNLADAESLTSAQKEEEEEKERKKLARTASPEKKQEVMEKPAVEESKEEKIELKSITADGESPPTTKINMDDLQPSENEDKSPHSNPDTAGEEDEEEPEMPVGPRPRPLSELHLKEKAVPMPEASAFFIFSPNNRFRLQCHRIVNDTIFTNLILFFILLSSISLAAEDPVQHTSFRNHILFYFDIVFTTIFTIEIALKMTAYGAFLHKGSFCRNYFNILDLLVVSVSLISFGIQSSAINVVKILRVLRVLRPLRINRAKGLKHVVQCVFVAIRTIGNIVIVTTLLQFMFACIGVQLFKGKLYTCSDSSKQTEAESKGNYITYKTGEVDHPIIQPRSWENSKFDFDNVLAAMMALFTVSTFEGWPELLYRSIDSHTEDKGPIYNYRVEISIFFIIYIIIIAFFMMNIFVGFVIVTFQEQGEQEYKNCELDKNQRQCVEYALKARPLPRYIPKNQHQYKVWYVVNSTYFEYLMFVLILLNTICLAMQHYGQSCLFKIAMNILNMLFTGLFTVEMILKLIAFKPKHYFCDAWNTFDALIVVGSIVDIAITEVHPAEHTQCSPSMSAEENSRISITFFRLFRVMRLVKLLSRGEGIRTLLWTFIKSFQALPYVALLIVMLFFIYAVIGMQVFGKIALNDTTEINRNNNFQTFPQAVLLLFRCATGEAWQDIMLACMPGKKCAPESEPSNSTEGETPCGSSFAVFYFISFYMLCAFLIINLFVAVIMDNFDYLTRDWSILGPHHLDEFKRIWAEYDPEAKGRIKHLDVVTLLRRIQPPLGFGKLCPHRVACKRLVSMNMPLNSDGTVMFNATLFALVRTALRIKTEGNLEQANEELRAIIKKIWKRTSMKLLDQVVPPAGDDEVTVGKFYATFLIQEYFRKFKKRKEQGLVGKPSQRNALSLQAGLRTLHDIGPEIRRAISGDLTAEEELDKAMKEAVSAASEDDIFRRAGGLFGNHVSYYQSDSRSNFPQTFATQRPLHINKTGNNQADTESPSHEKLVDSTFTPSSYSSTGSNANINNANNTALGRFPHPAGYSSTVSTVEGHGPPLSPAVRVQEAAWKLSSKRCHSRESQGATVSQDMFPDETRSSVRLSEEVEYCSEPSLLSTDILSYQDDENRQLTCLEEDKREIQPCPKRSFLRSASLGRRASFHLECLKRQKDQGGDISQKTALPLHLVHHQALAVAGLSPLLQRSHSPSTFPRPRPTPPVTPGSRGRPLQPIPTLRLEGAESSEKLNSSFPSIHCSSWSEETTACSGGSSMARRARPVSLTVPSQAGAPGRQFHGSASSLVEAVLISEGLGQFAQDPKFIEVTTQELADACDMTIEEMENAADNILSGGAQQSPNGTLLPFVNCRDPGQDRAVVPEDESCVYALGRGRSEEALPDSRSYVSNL
Sequence of Gamma-aminobutyric acid receptor subunit alpha-1 (Rattus norvegicus) (P62813 whole entry): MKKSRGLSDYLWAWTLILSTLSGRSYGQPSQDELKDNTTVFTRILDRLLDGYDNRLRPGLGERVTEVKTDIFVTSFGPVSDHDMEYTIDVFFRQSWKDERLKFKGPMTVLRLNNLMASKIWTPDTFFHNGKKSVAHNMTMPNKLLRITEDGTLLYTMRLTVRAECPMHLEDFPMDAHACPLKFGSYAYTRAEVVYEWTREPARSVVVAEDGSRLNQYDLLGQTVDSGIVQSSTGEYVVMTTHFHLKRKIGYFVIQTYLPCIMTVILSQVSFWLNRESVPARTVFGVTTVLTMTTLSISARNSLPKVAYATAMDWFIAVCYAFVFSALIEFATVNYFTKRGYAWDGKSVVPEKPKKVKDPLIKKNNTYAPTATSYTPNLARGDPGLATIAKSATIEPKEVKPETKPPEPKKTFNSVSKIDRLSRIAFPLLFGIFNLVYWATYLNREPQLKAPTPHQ
Sequence of Sigma intracellular receptor 2 (Q5BJF2 whole entry): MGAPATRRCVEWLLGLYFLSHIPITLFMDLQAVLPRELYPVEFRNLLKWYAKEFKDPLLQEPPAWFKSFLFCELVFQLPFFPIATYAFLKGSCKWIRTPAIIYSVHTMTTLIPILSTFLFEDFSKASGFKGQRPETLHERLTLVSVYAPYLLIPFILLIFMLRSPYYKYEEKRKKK
Sequence of Sodium-dependent noradrenaline transporter (Homo sapiens) (P23975 whole entry): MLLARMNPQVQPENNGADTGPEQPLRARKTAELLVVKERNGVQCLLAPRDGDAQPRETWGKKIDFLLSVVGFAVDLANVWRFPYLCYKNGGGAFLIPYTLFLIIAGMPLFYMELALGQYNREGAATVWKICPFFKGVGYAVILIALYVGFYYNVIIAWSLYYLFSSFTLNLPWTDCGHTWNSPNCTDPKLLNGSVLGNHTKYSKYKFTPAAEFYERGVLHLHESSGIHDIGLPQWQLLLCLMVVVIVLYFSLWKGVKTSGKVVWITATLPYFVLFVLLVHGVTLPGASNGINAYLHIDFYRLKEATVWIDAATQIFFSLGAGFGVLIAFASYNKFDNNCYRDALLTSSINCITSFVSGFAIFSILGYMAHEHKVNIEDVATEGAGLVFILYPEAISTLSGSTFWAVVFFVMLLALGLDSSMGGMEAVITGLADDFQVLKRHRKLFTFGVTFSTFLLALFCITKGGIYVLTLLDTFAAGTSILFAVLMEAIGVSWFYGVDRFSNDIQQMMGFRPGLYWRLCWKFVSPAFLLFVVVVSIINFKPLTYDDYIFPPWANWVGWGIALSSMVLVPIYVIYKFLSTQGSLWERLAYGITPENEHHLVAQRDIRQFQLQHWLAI
Sequence of D(1A) dopamine receptor (Homo sapiens) (P21728 whole entry): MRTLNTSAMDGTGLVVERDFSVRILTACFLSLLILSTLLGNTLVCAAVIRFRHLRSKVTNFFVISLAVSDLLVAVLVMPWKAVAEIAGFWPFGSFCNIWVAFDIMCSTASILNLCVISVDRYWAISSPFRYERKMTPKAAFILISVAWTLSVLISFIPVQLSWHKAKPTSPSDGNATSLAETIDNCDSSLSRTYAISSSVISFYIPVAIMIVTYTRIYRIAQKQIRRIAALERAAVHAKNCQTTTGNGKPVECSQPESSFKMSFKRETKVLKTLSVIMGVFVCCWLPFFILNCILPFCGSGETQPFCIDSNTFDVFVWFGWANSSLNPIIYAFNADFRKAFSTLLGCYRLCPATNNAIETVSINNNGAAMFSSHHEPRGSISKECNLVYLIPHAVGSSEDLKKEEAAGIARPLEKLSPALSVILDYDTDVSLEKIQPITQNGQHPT
Sequence of Voltage-dependent L-type calcium channel subunit alpha-1C (diltiazem site) (P22002 whole entry): as the sequence (P22002 whole entry) above
Sequence of Muscarinic acetylcholine receptor M5 (Homo sapiens) (P08912 whole entry): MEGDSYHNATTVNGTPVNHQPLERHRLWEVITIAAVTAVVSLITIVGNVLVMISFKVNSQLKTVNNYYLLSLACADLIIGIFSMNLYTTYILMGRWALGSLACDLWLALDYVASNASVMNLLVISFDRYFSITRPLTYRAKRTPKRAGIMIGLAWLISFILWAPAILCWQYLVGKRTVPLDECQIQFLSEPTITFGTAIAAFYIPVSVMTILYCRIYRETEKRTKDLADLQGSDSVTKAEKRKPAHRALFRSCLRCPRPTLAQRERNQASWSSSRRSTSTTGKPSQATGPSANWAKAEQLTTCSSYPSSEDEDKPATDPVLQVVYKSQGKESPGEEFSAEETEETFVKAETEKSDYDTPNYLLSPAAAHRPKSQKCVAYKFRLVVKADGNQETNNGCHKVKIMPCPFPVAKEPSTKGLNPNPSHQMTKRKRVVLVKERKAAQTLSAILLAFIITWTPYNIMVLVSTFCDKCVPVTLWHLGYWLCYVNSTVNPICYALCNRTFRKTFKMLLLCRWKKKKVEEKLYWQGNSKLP
Sequence of Histamine H2 receptor (Homo sapiens) (P25021 whole entry): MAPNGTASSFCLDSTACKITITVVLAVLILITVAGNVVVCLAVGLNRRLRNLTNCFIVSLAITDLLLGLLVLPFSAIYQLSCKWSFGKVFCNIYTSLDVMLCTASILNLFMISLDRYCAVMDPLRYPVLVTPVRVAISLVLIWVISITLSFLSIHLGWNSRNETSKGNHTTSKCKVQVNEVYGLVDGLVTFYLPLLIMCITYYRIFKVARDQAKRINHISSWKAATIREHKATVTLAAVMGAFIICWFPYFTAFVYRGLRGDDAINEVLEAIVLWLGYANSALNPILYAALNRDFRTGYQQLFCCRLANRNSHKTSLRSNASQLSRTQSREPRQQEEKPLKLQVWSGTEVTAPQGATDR

Which residual activity [1] does the source give for `C[C@H](NC(=O)c1cnc2n1[C@](C)(Cc1ccc(C#N)cc1)C(=O)N2c1cc(Cl)c(F)c(Cl)c1)C(=O)NC1(c2ccccn2)CC1` [BI 1950] here?
Its residual activity is 100%.

And the residual activity [2]?
Its residual activity is 134%.

And the residual activity [3]?
Its residual activity is 102%.

And the residual activity [4]?
The residual activity was 88%.

What about the residual activity [5] of the same molecule?
Its residual activity is 109%.

And the residual activity (Cavia porcellus)?
Its residual activity is 92%.

What about the activity at 0.03 µM ([6]; compound concentration 0.03 uM) of the same molecule?
Its activity at 0.03 µM is 97% (not active).

And the activity at 0.1 µM ([6]; compound concentration 0.1 uM)?
Its activity at 0.1 µM is 98% (not active).

What about the activity at 0.3 µM ([6]; compound concentration 0.3 uM) of the same molecule?
The activity at 0.3 µM was 94% (not active).

And the activity at 1 µM ([6]; compound concentration 1 uM)?
The activity at 1 µM was 81% (not active).

And the activity at 3 µM ([6]; compound concentration 3 uM)?
The activity at 3 µM was 58% (not active).

What about the activity at 10 µM ([6]; compound concentration 10 uM) of the same molecule?
Its activity at 10 µM is 28%.

What about the activity at 10 µM [7] of the same molecule?
The activity at 10 µM was 69% (not active).

And the residual activity [8]?
The residual activity was 86%.

What about the residual activity [9] of the same molecule?
The residual activity was 105%.

And the residual activity [10]?
Its residual activity is 92%.

What about the residual activity [11] of the same molecule?
Its residual activity is 86%.

What about the residual activity [12] of the same molecule?
The residual activity was 99%.

And the residual activity [13]?
The residual activity was 73%.

What about the residual activity [14] of the same molecule?
The residual activity was 111%.

What about the residual activity [15] of the same molecule?
The residual activity was 92%.

What about the residual activity [16] of the same molecule?
Its residual activity is 74%.

What about the residual activity [17] of the same molecule?
Its residual activity is 92%.

And the residual activity [18]?
The residual activity was 107%.

What about the activity at 10 µM [19] of the same molecule?
The activity at 10 µM was 101% (not active).

And the residual activity [20]?
Its residual activity is 109%.

What about the residual activity [21] of the same molecule?
Its residual activity is 77%.

What about the residual activity ([22]; Compound concentration 0.03 uM) of the same molecule?
Its residual activity is 94%.

What about the residual activity ([22]; Compound concentration 0.1 uM) of the same molecule?
Its residual activity is 93%.

What about the residual activity ([22]; Compound concentration 0.3 uM) of the same molecule?
Its residual activity is 91%.

What about the residual activity ([22]; Compound concentration 1.0 uM) of the same molecule?
The residual activity was 82%.

What about the residual activity ([22]; Compound concentration 3.0 uM) of the same molecule?
Its residual activity is 74%.

And the residual activity ([22]; Compound concentration 10.0 uM)?
Its residual activity is 47%.

What about the inhibition [23] of the same molecule?
Its inhibition is -2.81%.

How did the pKi ([24]; read-out: Ki) turn out when `C[C@@]1(Cc2ccc(C#N)cc2)C(=O)N(c2cc(Cl)cc(Cl)c2)c2ncc(C(=O)NC3(c4nc(C5CCC5)no4)CC3)n21` [BI 9446] was run?
Its pKi is 6.25.

And the Ki ([24]; read-out: pKi (converted))?
Its Ki is 507 nM.

What about the inhibition [25] of the same molecule?
Its inhibition is -8.46%.

And the inhibition [26]?
Its inhibition is 8.28%.

— ChEMBL document CHEMBL4507282, “Data for DCP probe BI-1950” (2021)
